Measurements as given in patent publication US20210221848A1, “POLYMYXIN DERIVATIVES AND THEIR USE IN COMBINATION THERAPY TOGETHER WITH DIFFERENT ANTIBIOTICS” (priority 2014, published 2021).
Where two headings read alike, the source gives them in different places.

How the values were obtained:
[1] = tested on: P. aeruginosa
[2] = tested on: E. coli strains with elevated MICs to Polymyxin B; assay: MIC against strains with elevated MICs to Polymyxin B; assay type: cell-based, Escherichia coli; conditions: for MIC E. coli 058: strain 058, elevated MIC to Polymyxin B; for MIC E. coli 059: strain 059, elevated MIC to Polymyxin B; for MIC E. coli 060: strain 060, elevated MIC to Polymyxin B; for MIC E. coli 061: strain 061, elevated MIC to Polymyxin B
Summary of the method: (§1)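 Direct colony suspension at 0.5 McFarland (from 18-24 h Mueller-Hinton agar) served as inoculum; duplicates, lower value kept if within 2-fold.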

[3] = tested on: P. aeruginosa ATCC 27853; assay: In vivo efficacy, thigh infection in mice, IV dosing, 9 h model; design: species or system Pseudomonas aeruginosa; conditions: mouse thigh
Description: Compounds were administered in solution by intravenous (IV) bolus injection into the lateral tail vein. […] At 1 hour post infection, 4 animals were humanely euthanized using pentabarbitone overdose to provide a pre-treatment control group. At 9 hours post infection, the clinical condition of all animals was assessed prior to them being humanely euthanized by pentabarbitone overdose. Animal weight was determined before both thighs were removed and weighed individually. Individual thigh tissue samples were homogenized in ice cold sterile phosphate buffered saline. Thigh homogenates were then quantitatively cultured onto cystine lactose electrolyte deficient (CLED) agar and incubated at 37° C. for 24 hours before colonies were counted.

[4] = tested on: Escherichia coli ATCC 25922; conditions: mouse thigh, 3.4 mg/kg/dose free base IV at 1, 3.5 and 6 h post-infection, 9 h model
[5] = tested on: P. aeruginosa strains with elevated MICs to Polymyxin B; assay: MIC against strains with elevated MICs to Polymyxin B; assay type: cell-based, Pseudomonas aeruginosa; conditions: for MIC P. aeruginosa 065: strain 065, elevated MIC to Polymyxin B; for MIC P. aeruginosa 066: strain 066, elevated MIC to Polymyxin B; for MIC P. aeruginosa 067: strain 067, elevated MIC to Polymyxin B
Summary of the method: as §1

[6] = tested on: E. coli; assay: MIC in the presence of a fixed concentration (2 μg/mL) of Rifampicin; assay type: cell-based, Escherichia coli; conditions: Rifampicin 2 μg/mL, Table 5C
[7] = tested on: E. coli; assay: MIC in 1:1 (wt:wt) combination with Rifampicin; assay type: cell-based, Escherichia coli; conditions: 1:1 (wt:wt) with Rifampicin, total drug concentration
Description: (§2) The inoculum was prepared by making a direct suspension of isolated colonies (selected from an 18-24 hour Mueller-Hinton agar plate) adjusted to the 0.5 McFarland standard. […] The assays were performed in duplicate. […] In cases where the duplicate values varied by less than 2-fold, the lower of the two values is reported. If a variation of greater than 2-fold was observed, the assay was considered non-valid. Several of the compounds were subjected to multiple tests, and where this is the case, the MIC reflects the modal value obtained.
(§3) MIC values (microgram/mL) refer to the total drug concentration (i.e. test agent plus Rifampicin).

[8] = tested on: A. baumannii; assay: MIC in 1:1 (wt:wt) combination with Rifampicin; assay type: cell-based, Acinetobacter baumannii; conditions: 1:1 (wt:wt) with Rifampicin, total drug concentration
Description: as §2, §3

[9] = tested on: K. pneumoniae; assay: MIC in the presence of a fixed concentration (2 μg/mL) of Rifampicin; assay type: cell-based, Klebsiella pneumoniae; conditions: Rifampicin 2 μg/mL, Table 5C

## Polymyxin B [PMB, reference compound]
[1]; P. aeruginosa ATCC 27853
  MIC: 0.5 µg/mL
[1]; P. aeruginosa ATCC 27853, absence of a second agent, Table 6B
  MIC, P. aeruginosa ATCC 27853: 0.5 micrograms/mL
[1]; P. aeruginosa CCUG 59347
  MIC: 0.5 µg/mL
[1]; P. aeruginosa CCUG 59347, absence of a second agent, Table 6B
  MIC, P. aeruginosa CCUG 59347: 0.5 micrograms/mL
[1]; strain ATCC 27853, compound alone
  MIC, P. aeruginosa ATCC 27853: 0.5 micrograms/mL
[1]; strain CCUG 59347, compound alone
  MIC, P. aeruginosa CCUG 59347: 0.5 micrograms/mL
[2]; Table 6D
  MIC E. coli 058: 4 micrograms/mL
  MIC E. coli 059: 4 micrograms/mL
  MIC E. coli 060: 4 micrograms/mL
  MIC E. coli 061: 16 micrograms/mL
[2]; Table 6F
  MIC E. coli 058: 4 micrograms/mL
  MIC E. coli 059: 4 micrograms/mL
  MIC E. coli 060: 4 micrograms/mL
  MIC E. coli 061: 16 micrograms/mL
[3]; dose 0.85 mg/kg drug base IV at 1, 3.5 and 6 h post-infection
  Log reduction from vehicle (CFU/g): 1.19 log10 CFU/g
[3]; dose 3.4 mg/kg drug base IV at 1, 3.5 and 6 h post-infection
  Log reduction from vehicle (CFU/g): 4.23 log10 CFU/g
[4]
  Mean log10 CFU reduction vs. control: 4.32 log10 CFU
[5]; Table 6D
  MIC P. aeruginosa 065: 4 micrograms/mL
  MIC P. aeruginosa 066: 8 micrograms/mL
  MIC P. aeruginosa 067: 128 micrograms/mL
[5]; Table 6F
  MIC P. aeruginosa 065: 4 micrograms/mL
  MIC P. aeruginosa 066: 8 micrograms/mL
  MIC P. aeruginosa 067: 128 micrograms/mL
[6]; E. coli ATCC 25922
  MIC in combination with Rifampicin, E. coli ATCC 25922: ≤0.015 micrograms/mL
[6]; E. coli NCTC 13441
  MIC in combination with Rifampicin, E. coli NCTC 13441: 0.03 micrograms/mL
[7]; E. coli 058
  MIC in 1:1 combination with rifampicin, E. coli 058: 1 microgram/mL
[7]; E. coli 059
  MIC in 1:1 combination with rifampicin, E. coli 059: ≤0.5 microgram/mL
[7]; E. coli 060
  MIC in 1:1 combination with rifampicin, E. coli 060: 1 microgram/mL
[7]; E. coli ATCC 25922
  MIC in 1:1 combination with rifampicin, E. coli ATCC 25922: ≤0.5 microgram/mL
[8]; A. baumannii 053
  MIC in 1:1 combination with rifampicin, A. baumannii 053: ≤0.5 microgram/mL
[8]; A. baumannii 056
  MIC in 1:1 combination with rifampicin, A. baumannii 056: ≤0.5 microgram/mL
[9]; K. pneumoniae ATCC 4352
  MIC in combination with Rifampicin, K. pneumoniae ATCC 4352: 0.06 micrograms/mL
[9]; K. pneumoniae ATCC BAA-2146
  MIC in combination with Rifampicin, K. pneumoniae ATCC BAA-2146: 0.25 micrograms/mL
